Data from patent publication US6852760B1, “Compositions and methods for treatment for glucose metabolism disorders” (Akesis Pharmaceuticals, Inc., priority 1998, dated 2005).
Where two headings read alike, the source gives them in different places.

Columns and labels:
[1] = cited from earlier work
[2] = person with Type 2 diabetes; metformin 500 mg b.i.d.; combination after 2 months
[3] = person, Type 2 diabetes; metformin 1000 mg b.i.d.; combination after 3 months
[4] = after 14 weeks, cited from earlier work
[5] = hypertensive obese non-diabetic women; cited from earlier work
[6] = NIDDM patients; cited from earlier work
[7] = dietary; STZ-induced diabetic rats; cited from earlier work
Na/K ATPase = conditions: catalytic cycle of Na/K ATPase; cited from earlier work
[8] = treatment periods of up to one year; cited from earlier work
[9] = cited from earlier work; remark: listed apart in the source
[10] = rat, in vivo, po; cited from earlier work

Compound: CN(C)C(=N)NC(=N)N [Metformin alone, N,N-dimethylimidodicarbonimidicdiamide]
- HbA1c level after metformin therapy ([1]; after 29 weeks, alone or in combination with sulfonylurea, improved from 8.6%): 7.1%
- effect on serum lipids ([1]; moderately obese Type 2 diabetics): lowering mean fasting serum triglycerides, total cholesterol, and LDL cholesterol levels
- Cholesterol [2]: 229
- Estimated Blood Sugar [2]: 200 mg/dL
- Fasting Blood Sugar [2]: 185 mg/dL
- HDL [2]: 52
- HbA1c level [2]: 9.7
- LDL [2]: 133
- Triglycerides [2]: 220
- HbA1c level [3]: 8.3
- reduction of HbA1c ([4]; 500 mg daily): 0.9%
- reduction of HbA1c ([4]; 2000 mg daily): 2.0%
- blood pressure, plasma insulin, fibrinogen [5]: decreased blood pressure, fasting and glucose-stimulated plasma insulin fibrinogen

Compound: CC(=O)N[C@@H](CS)C(=O)O [NAC, N-acetylcysteine]
- reduction of apolipoprotein A1 [6]: over 20%
- development of peripheral neuropathy [7]: appeared to inhibit the development of peripheral neuropathy

Compound: [O]=[V]([O-])([O-])[O-] [vanadate]
- concentration inhibiting formation of EP (Na/K ATPase): less than 1 micromolar

Compound: O=S(=O)([O-])[O-].[O]=[V+2] [vanadyl sulfate]
- apparent toxicity [8]: does not appear not to be associated with any apparent toxicity

Compound: Cc1c(C)c2c(c(C)c1O)CC[C@@](C)(CCC[C@H](C)CCC[C@H](C)CCCC(C)C)O2 [vitamin E, free 2R,4′R,8′R-alpha-tocopherol]
- non-fatal myocardial infarction ([9]; 400 or 800 I.U. daily, patients with coronary artery disease): dramatic and significant reduction of non-fatal myocardial infarction
- side effects versus placebo ([9]; 400 or 800 I.U.): no difference between the alpha-tocopherol treatment (400 or 800 I.U.) or placebo groups for side effects

Compound: chromium picolinate
- rate of absorption relative to chromium trichloride [10]: about four times greater than chromium trichloride
